# Test results: US10793514B2, “Glutamine transport inhibitors and methods for treating cancer” (Vanderbilt University, priority 2016, dated 2020)
# Tests used:
# HT29 and HCT-116 cells = assay: Cell viability with or without chloroquine; format: cell-based, human; conditions: combined with chloroquine (10 μM), 48 h
# Method: (§1) Viability was evaluated using a commercially available chemiluminescent reagents (CellTiter-Glo, Promega Corp. G7572; MultiTox Glo, Promega Corp. G9270) in 96-well plate format according to the manufacturers protocol. […] Subsequently, CellTiter-Glo reagent was added and the plates were read using a plate reader (BioTek Synergy 4) with standard settings. Each set of conditions was replicated at least three times, technically and biologically. Error is reported as standard deviation (SD). The sulforhodamine B assay was run analogously to the above assays as previously described^19.
# HCC1806 cells = assay: Immunoblot of pS6 and pERK in HCC1806 cells; format: cell-based, human; conditions: 25 μM, 48 hrs
# Method: For immunoreactivity studies, tissue samples were diluted to 100 mg/mL in lysis buffer (#7018s, Cell Signaling Technology) and subsequently homogenized, sonicated, and spun at 3.5K RPM for 1 min. Lysate samples were then screened against an array of target-specific capture antibodies using PathScan Intracellular Signaling Array Kits (#7323, Cell Signaling Technology) in accordance with the manufacturer's instructions and developed using HyBlot CL autoradiography film (# e3012, Denville Scientific Inc.). Processed films were digitized using an Epson Perfection V600 Photo scanner and the relative pixel intensities for each blot quantified using the image processing software ImageJ. Complementary western blot studies were performed by loading 20-40 μg of protein into 7.5-12% SDS PAGE gels, […]. Membranes were blocked overnight at 4° C. in trisbuffered saline 0.1% Tween-20 (TBST) containing 5% w/v nonfat dry milk powder and subsequently incubated with antibodies to p-ERK 1/2 Thr202/Tyr204 (Cell Signaling, 4370), pS6 (Cell Signaling, #4858) LC3B, (anti LC3B, Cell signaling 2775), or b-tubulin (Novus Biologicals, NB600-936); Membrane chemiluminescence was imaged on a Xenogen IVIS 200 system.
# [1] = tested on: HCT-116 (KRAS G13D) cell-line xenografts; assay: HCT-116 xenograft chronic exposure study; format: in vivo, mouse; conditions: 75 mg/kg per day, 21 days
# Method: Tissues were sectioned (5 μm thickness) and stained for pS6 (Cell Signaling, #4858) and caspase 3 (Cell Signaling #9661). Tissue slides were imaged at 20× magnification.
# For in vivo studies, cell-line xenograft tumors were propagated in 6-week old, female athymic nude mice from immortalized cell lines. For HCC-1806 (10×10^6 cells), HCT-116 (5×10^6), and HT29 (10×10^6) cells were injected. Palpable tumors were typically visible within 2-3 weeks. For imaging studies (HCC-1806), tumors were propagated to approximately 500 mm^3. For treatment studies (HCT-116, HT29) tumors were propagated to approximately 200 mm^3 prior to therapy and were randomly assigned into treated and untreated cohorts. For generating the PDX, primary tumor tissue was obtained form a patient at Vanderbilt University Medical Center under an IRB approved protocol. The tumor tissue was genotyped within the VANTAGE core facility. Xenograft was generated as previously described 41. Briefly, tumor tissues were sectioned into approximately 125 cubic millimeter pieces then implanted subcutaneously without further manipulation. […] Tumor volumes were measured manually using calipers every third day and quantified using the formula V=W·L·(H/2).
# HT29 xenografts = assay: Global metabolomic analysis of HT29 xenografts; format: in vivo, mouse; conditions: 21 consecutive days
# Method: Metabolomic data acquisition was outsourced to Metabolon, Inc. Samples were prepared using the automated MicroLab STAR® system from Hamilton Company. To remove protein, dissociate small molecules bound to protein or trapped in the precipitated protein matrix, and to recover chemically diverse metabolites, proteins were precipitated with methanol under vigorous shaking for 2 min (Glen Mills GenoGrinder 2000) followed by centrifugation. The resulting extract was divided into five fractions: two for analysis by two separate reverse phase (RP)/UPLC-MS/MS methods with positive ion mode electrospray ionization (ESI), one for analysis by RP/UPLC-MS/MS with negative ion mode ESI, one for analysis by HILIC/UPLC-MS/MS with negative ion mode ESI, and one sample was reserved for backup. Samples were placed briefly on a TurboVap® (Zymark) to remove the organic solvent. All methods utilized a Waters ACQUITY ultra-performance liquid chromatography (UPLC) and a Thermo Scientific Q-Exactive high resolution/accurate mass spectrometer interfaced with a heated electrospray ionization (HESI-II) source and Orbitrap mass analyzer operated at 35,000 mass resolution. The sample extract was dried then reconstituted in solvents compatible to each of the four methods. Each reconstitution solvent contained a series of standards at fixed concentrations to ensure injection and chromatographic consistency. One aliquot was analyzed using acidic positive ion conditions, chromatographically optimized for more hydrophilic compounds. […] Another aliquot was also analyzed using acidic positive ion conditions, however it was chromatographically optimized for more hydrophobic compounds. […] Another aliquot was analyzed using basic negative ion optimized conditions using a separate dedicated C18 column. […] The fourth aliquot was analyzed via negative ionization following elution from a HILIC column (Waters UPLC BEH Amide 2.1×150 mm, 1.7 μm) using a gradient consisting of water and acetonitrile with 10 mM Ammonium Formate, pH 10.8. […] Peaks were quantified using area-under-the-curve. […]
# human CRC cell lines = assay: Follow-up viability screening (MultiTox Glo, sulforhodamine B); format: cell-based
# Method: as §1
smiles,measurement,setting,value
Cc1cccc(COc2ccccc2CN(CCC(N)C(=O)O)Cc2ccccc2OCc2cccc(C)c2)c1 (centres unmarked) [Compound V-9302],"cell viability, combination",HT29 and HCT-116 cells,further decreased cell viability
same,pERK,HCC1806 cells,modest decrease in pERK
same,pS6,HCC1806 cells,significantly decreased pS6
same,cleaved caspase 3 in tumor tissue,[1]; IHC,elevated levels of cleaved caspase 3
same,pS6 in tumor tissue,[1]; IHC,significantly decreased pS6
same,tumor growth,[1]; vs vehicle,prevented tumor growth
same,creatine-phosphate levels in treated tumors,HT29 xenografts,significantly reduced
same,oxidized glutathione (GSSG) and 4-hydroxy-nonenal-glutathione in tumors,HT29 xenografts,significantly elevated
same,reduction of N-acetylserine in treated tumors,HT29 xenografts,greater than 4 fold
same,cellular viability and cell death,"human CRC cell lines; 25 μM, 48 h, three independent assays lacking ATP-dependency",reduced cellular viability and increased cell death
same,EC50,"human CRC cell lines; four human CRC cell lines, 48 hrs, MultiTox Glo, read-out: EC50, cellular viability",9 to 15 µM
